From US4298739A, “Novel carbostyril derivatives” (priority 1977, dated 1981) come the findings set out here.

The subject of data set [1] is rabbit platelet. Nature of the data set: Collagen-induced aggregation in rabbit platelets (AG-II Aggregometer). Type of data set: cell-based. In a few lines: (§1)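 Rabbit citrated PRP, diluted with PPP to 300,000/mm^3 platelets for ADP or 450,000/mm^3 for collagen, was preincubated with compound 1 min at 37° C. before inducer was added. ADP at 7.5×10^-5 M or collagen supernatant in Auren Beronal buffer pH 7.35; transmittance change recorded, percent inhibition derived.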

For data set [2], the system named is rabbit platelet. Nature of the data set: ADP-induced aggregation in rabbit platelets (AG-II Aggregometer). It counts as cell-based. In a few lines:
as §1

In the next data set the test system is Male mice. The experiment in a line: Acute toxicity test, oral administration to mice. It counts as in vivo. The procedure:
The test compounds were administered orally to the mice and LD50 (mg/kg) of the compounds was determined.

For data set [3], the target named is T1, cyclic AMP phosphodiesterase (Oryctolagus cuniculus, UniProt G1ST54).
T1 construct: the supernatant was collected to use it as a crude enzyme solution; from tissue; host or cells: rabbit platelets (from platelet-rich plasma), 100,000 xg supernatant, DEAE-cellulose fraction
T1 sequence (G1ST54 1-1128): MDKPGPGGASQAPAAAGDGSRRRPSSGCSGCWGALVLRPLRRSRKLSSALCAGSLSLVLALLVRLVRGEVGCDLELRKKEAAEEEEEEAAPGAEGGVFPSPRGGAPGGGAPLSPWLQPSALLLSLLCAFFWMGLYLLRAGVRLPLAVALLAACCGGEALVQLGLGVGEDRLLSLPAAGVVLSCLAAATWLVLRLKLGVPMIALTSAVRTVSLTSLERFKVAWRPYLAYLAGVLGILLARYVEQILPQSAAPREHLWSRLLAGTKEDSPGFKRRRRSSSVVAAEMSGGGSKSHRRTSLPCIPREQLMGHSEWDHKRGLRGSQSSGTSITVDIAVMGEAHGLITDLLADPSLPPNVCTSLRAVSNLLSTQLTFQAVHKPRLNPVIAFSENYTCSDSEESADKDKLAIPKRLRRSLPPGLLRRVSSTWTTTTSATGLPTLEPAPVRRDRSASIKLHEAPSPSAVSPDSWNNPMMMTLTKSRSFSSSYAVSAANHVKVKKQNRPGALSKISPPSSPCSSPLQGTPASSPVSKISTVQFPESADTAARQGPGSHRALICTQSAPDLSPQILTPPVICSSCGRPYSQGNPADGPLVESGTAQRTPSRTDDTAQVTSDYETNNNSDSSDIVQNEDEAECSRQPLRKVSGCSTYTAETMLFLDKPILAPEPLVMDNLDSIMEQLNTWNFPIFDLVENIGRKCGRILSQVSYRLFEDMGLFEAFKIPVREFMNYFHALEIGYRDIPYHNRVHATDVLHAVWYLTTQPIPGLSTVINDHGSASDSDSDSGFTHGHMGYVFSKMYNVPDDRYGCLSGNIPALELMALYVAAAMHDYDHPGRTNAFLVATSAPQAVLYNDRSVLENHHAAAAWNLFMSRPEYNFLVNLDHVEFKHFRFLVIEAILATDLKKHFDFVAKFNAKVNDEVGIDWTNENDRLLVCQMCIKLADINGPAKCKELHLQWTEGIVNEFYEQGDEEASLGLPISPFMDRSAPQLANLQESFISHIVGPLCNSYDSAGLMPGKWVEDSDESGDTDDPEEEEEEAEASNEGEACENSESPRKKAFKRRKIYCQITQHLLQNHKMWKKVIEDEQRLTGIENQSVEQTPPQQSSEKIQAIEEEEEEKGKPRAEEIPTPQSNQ
The experiment in a line: Obstructive action against cyclic AMP phosphodiesterase. The conditions noted are these: 1.0 μmol cyclic AMP, pH 8.0, 30° C., read-out: phosphodiesterase obstruction rate. It counts as biochemical, rabbit. The procedure: The obstructive action against cyclic AMP phosphodiesterase was measured according to the activity measuring method described in "Biochimica et Biophysica Acta", Vol. 429, pp. 485-497 (1976) and "Biochemical Medicine", Vol. 10, pp. 301-311 (1974).
That is, for determining the obstructive activity against cyclic AMP phosphodiesterase, 10 ml of a solution obtained by adding 1 mmol of MgCl2 into 50 mmol of tris-hydrochloric acid buffer with pH 7.4 was added to the platelets obtained by further centrifuging the abovesaid rabbit PRP at 3,000 r.p.m. for 10 minutes, and the suspended platelets were ground by a Teflon potter type homogenizer. This was followed by two times of freezing and thawing treatment and 300-second fracturing with 200 watt supersonic waves. After additional 60-minute centrifugation with 100,000 xg, the supernatant was collected to use it as a crude enzyme solution.
10 Milliliters of this crude buffer solution was added to a 1.5×20 cm DEAE-cellulose column which has previously been buffered with 50 mmol of tris-acetate buffer (pH 6.0), followed by washing and elution with 30 ml of 50 mmol tris-acetate buffer, and this buffer solution was subjected to linear gradient elution with 0 to 0.5 moles of sodium acetate-tris-acetatebuffer. The flow rate was 0.5 ml/min, and 5 ml of each fraction was batched out. […] This fraction was used as cyclic AMP phosphodiesterase.
0.1 Milliliter of an aqueous solution of each test compound of a specified concentration was mixed with 40 mmol of tris-hydrochloric acid buffer (pH 8.0, containing 50 μg of cow serum albumin and 4 mmol of MgCl2) containing predetermined 1.0 μmol of cyclic AMP (tritium cyclic AMP), and 0.2 ml of this mixed solution was used as substrate solution.
0.2 Milliliter of the above-prepared cyclic AMP phosphodiesterase of a predetermined concentration was added to said substrate solution and the mixture was reaction at 30° C. for 20 minutes, producing tritium 5'-AMP from the tritium cyclic AMP.
The reaction system was then immersed in boiling water for 2 minutes to stop the reaction, and then this reaction solution was cooled in ice water and, for converting the produced tritium 5'-AMP into tritium adenosine, the solution was added with 0.05 ml (1 mg/ml) of snake poison as 5'-nucleotidase and reacted at 30° C. for 10 minutes. The whole amount of this reaction solution was then added to a cation exchange resin (AG 500 W×4, 200-400 meshes, manufactured by Bio-Rad Co., column size: 0.5×1.5 cm), and the produced tritium anodesine alone was allowed to combine, washed with 6 ml of distilled water and eluted with 1.5 ml of 3 N-ammonia water. The whole quantity of the elutant was added with 10 ml of a triton-toluene type scintillator and the produced tritium adenosine was measured by a liquid scintillation counter to determine the phosphodiesterase activity.
In this way, the phosphodiesterase activation value (Vs) of the test compounds of the respective concentrations was determined, and the phosphodiesterase obstruction rate (%) was determined from said activation value (Vs) and control value (Vc) (obtained from water not containing any test compound) from the following formula: [formula]

As to `O=C1CCc2cc(OCCCC(=O)Nc3c(Cl)cccc3Cl)ccc2N1` [compound 21, 6-[3-(o,o-Dichloroanilinocarbonyl)propoxy]-3,4-dihydrocarbonstyril], the “Inhibition effect on collagen induced aggregation in rabbit platelet” value in the data set on rabbit platelet [1] (10^-4 mole) is on record as 95.1%; with rabbit platelet [1] (10^-5 mole), 27.6%. The “Inhibition effect on ADP-induced aggregation in rabbit platelet” value in the data set on rabbit platelet [2] (10^-4 mole) came to 36.8%; with rabbit platelet [2] (10^-5 mole) it was 5.3%. The compound also yielded an LD50 in the data set on Male mice above 1000 mg.
Consider `CC(C)Cn1c(=O)n(C)c(=O)c2[nH]cnc21` [1-Methyl-3-isobutylxanthine, 1-methyl-3-isobutylxanthine, reference compound], for which the inhibition at 100 µM in data set [3] (10^-4 mole) is 98.5%. In addition, in data set [3] (10^-5 mole), the inhibition at 10 µM stood at 85.7%. Also, in data set [3] (10^-6 mole), the inhibition at 1 µM turned out to be 67.4%. Moreover, the inhibition at 0.1 µM in data set [3] (10^-7 mole) came to 3.2%.
